Patent US12441739B2, “Glucagon receptor antagonist and use thereof” (LANZHOU UNIVERSITY, priority 2021, dated 2025)
“And” between values parts separate entries of the source, which are not always exact repeats. Identical values can stand only once.

Target: T1, human glucagon receptor (hGCGR) (Homo sapiens, UniProt P47871)
T1 construct: host or cells: HEK293
Assay: HTRF second messenger cAMP response experiment (called cell viability test) in HEK293 cells with glucagon peptide segment
Assay type: cell-based
Procedure: In order to determine the antagonistic activity of the compound A on the glucagon receptor in the above embodiments, a cell viability test is carried out. The specific implementation is as follows.
A known human glucagon receptor (hGCGR) antagonist drug is selected as a positive control, and the compound A in the above embodiments, a glucagon peptide segment (that is, human full-length glucagon), and human embryonic kidney cells containing target receptor molecules are mixed. The glucagon peptide segment binds to hGCGR to activate the hGCGR signaling pathway and release the second messenger cAMP. The compound A acts as an antagonist to inhibit the activity of hGCGR.
In an exemplary embodiment, a known hGCGR antagonist drug (L-168,049) is selected as a positive control. […] In addition, in view of the human glucagon receptor on the cell membrane of human embryonic kidney cells HEK293, HEK293 is used to test the drug activity of the human glucagon antagonist. In this embodiment, different concentrations of compound A of the present disclosure and the positive control are respectively mixed with glucagon peptide segments and HEK293 cells, the second messenger cAMP is detected through homogeneous time resolved fluorescence (HTRF), and a half maximal inhibitory concentration value of each compound is calculated according to the intensity value of HTRF.
(§1) In an exemplary embodiment, the activity of the compound A is tested using the HTRF technique. Specifically, after activation of the glucagon receptor by the glucagon peptide segment, the second messenger cAMP is released from the glucagon receptor cells, the second messenger cAMP may be detected by HTRF, and the half maximal inhibitory concentration (IC50) of the tested compound may be calculated according to the fluorescence intensity.
In an exemplary embodiment, 11 identical concentration gradients are set for the compounds A1 and A2 respectively. The activities of the compounds A1 and A2 are determined by the HTRF second messenger cAMP response experiment in triplicate.
Step S910. Select an antagonist drug of hGCGR as a positive control, and mix each target drug small molecule, a glucagon peptide segment, and human embryonic kidney cells containing the target receptor molecule. The glucagon peptide segment binds to hGCGR to activate the hGCGR signaling pathway and release the second messenger cAMP. The target drug molecule acts as an antagonist to inhibit the activity of hGCGR.
In an exemplary embodiment, an antagonist drug (such as L-168,049) of hGCGR is selected as a positive control. In addition, in view of the human glucagon receptor on the cell membrane of human embryonic kidney cells (such as HEK293), HEK293 may be used to test the drug activity of the human glucagon antagonist. The target drug small molecule, the glucagon peptide segment, and the HEK293 cells containing the target receptor molecule are mixed. The glucagon peptide segment is used to bind to hGCGR to activate the hGCGR signaling pathway and promote the release of the second messenger cAMP. The target drug molecule acts as an antagonist to inhibit the activity of hGCGR.
Step S920. Detect the second messenger cAMP through HTRF, and determine a half maximal inhibitory concentration value of each target drug small molecule according to an intensity value of HTRF.
as §1, with “each target drug small molecule (such as 30 target drug small molecules shown in Table 2)” for “the compound A”, “tested by” for “tested”, “drug molecule” for “tested compound”, “intensity. […]” for “intensity.”

T1 sequence (P47871 26-477): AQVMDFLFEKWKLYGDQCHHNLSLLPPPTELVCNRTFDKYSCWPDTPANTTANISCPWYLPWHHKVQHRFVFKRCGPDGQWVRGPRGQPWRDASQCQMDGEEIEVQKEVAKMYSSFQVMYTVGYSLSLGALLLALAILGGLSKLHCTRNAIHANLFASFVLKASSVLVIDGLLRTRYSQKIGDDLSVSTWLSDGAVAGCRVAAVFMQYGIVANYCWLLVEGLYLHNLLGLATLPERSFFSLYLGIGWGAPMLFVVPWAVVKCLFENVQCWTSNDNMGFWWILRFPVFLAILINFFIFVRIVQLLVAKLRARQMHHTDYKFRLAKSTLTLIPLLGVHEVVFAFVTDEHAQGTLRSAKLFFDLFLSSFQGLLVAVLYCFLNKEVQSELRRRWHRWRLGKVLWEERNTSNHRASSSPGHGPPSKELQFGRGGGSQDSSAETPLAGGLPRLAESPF

With CCCOc1ccc(Br)cc1-c1cc(-c2ccc(Cl)cc2)[nH]c1-c1ccncc1 [L-168,049, 4-[3-(5-bromo-2-propoxyphenyl)-5-(4-chlorophenyl)-1H-pyrrol-2-yl]pyridine, reference compound] the IC50 (HEK293, cAMP HTRF, 11 concentrations, L-168,049 positive control per group of ten compounds) was 61.5 nM and 42.2 nM, the Inhibition percentage (concentration gradient LogM −5, HEK293 cells, glucagon peptide segment, HTRF cAMP, triplicate columns) was 100.4281% and 100.5604% and 100.8895% and the Inhibition percentage (concentration gradient LogM −5, triplicate, HEK293, cAMP HTRF) was 100.4281 percentage. For the same compound, the Inhibition percentage (concentration gradient LogM −5.477121, HEK293 cells, glucagon peptide segment, HTRF cAMP, triplicate columns) was 98.6132% and 96.62% and 98.1315%, the Inhibition percentage (concentration gradient LogM −5.477121, triplicate, HEK293, cAMP HTRF) was 98.6132 percentage and the Inhibition percentage (concentration gradient LogM −5.954243, HEK293 cells, glucagon peptide segment, HTRF cAMP, triplicate columns) was 98.05% and 95.17% and 94.46%. The Inhibition percentage (concentration gradient LogM −5.954243, triplicate, HEK293, cAMP HTRF) was 98.05 percentage, the Inhibition percentage (concentration gradient LogM −6.431364, HEK293 cells, glucagon peptide segment, HTRF cAMP, triplicate columns) was 93.05% and 91.9% and 88.0059% and the Inhibition percentage (concentration gradient LogM −6.431364, triplicate, HEK293, cAMP HTRF) was 93.05 percentage. For the same compound, the Inhibition percentage (concentration gradient LogM −6.908485, HEK293 cells, glucagon peptide segment, HTRF cAMP, triplicate columns) was 89.46% and 74.79% and 78.16%, the Inhibition percentage (concentration gradient LogM −6.908485, triplicate, HEK293, cAMP HTRF) was 89.46 percentage and the Inhibition percentage (concentration gradient LogM −7.385606, HEK293 cells, glucagon peptide segment, HTRF cAMP, triplicate columns) was 46.69% and 16.31%. For the same compound, the Inhibition percentage (concentration gradient LogM −7.385606, triplicate, HEK293, cAMP HTRF) was 47.8261 percentage, the Inhibition percentage (concentration gradient LogM −7.862728, HEK293 cells, glucagon peptide segment, HTRF cAMP, triplicate columns) was 33.52% and 15.3532% and the Inhibition percentage (concentration gradient LogM −7.862728, triplicate, HEK293, cAMP HTRF) was 28.98 percentage. The Inhibition percentage (concentration gradient LogM −8.339849, HEK293 cells, glucagon peptide segment, HTRF cAMP, triplicate columns) was −19.5336% and −9.209%, the Inhibition percentage (concentration gradient LogM −8.339849, triplicate, HEK293, cAMP HTRF) was 3.941 percentage and the Inhibition percentage (concentration gradient LogM −8.81697, triplicate, HEK293, cAMP HTRF) was −8.051 percentage. The Inhibition percentage (concentration gradient LogM −9.294091, HEK293 cells, glucagon peptide segment, HTRF cAMP, triplicate columns) was 19.0859% and −1.84%, the Inhibition percentage (concentration gradient LogM −9.294091, triplicate, HEK293, cAMP HTRF) was −3.763 percentage and the Inhibition percentage (concentration gradient LogM −9.771213, HEK293 cells, glucagon peptide segment, HTRF cAMP, triplicate columns) was −1.911% and 6.132% and 1.646%. For the same compound, the Inhibition percentage (concentration gradient LogM −9.771213, triplicate, HEK293, cAMP HTRF) was −1.911 percentage.
